Patent US7851474B2, “Dipiperazinyl ketones and related analogues” (Neurogen Corporation, priority 2005, dated 2010)

biological target: T1, chimeric human H3 receptor (Homo sapiens, UniProt Q9Y5N1, E19D); assay: Chimeric human H3 receptor GTP binding assay (agonist-stimulated GTP-gamma35S binding, Example 7); assay type: biochemical; conditions: Table II; assay of Example 7; "*" in Ki; read-out: Ki
T1 construct: made in house; host or cells: Sf9 insect cells (baculovirus infection); P2 membrane preparation
Procedure, shortened: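 IC50 values come from non-linear regression of dose-response curves of filter-bound GTP-gamma^35S, counted by scintillation. Membranes were from infected Sf9 cells carrying receptor plus G-protein subunits, 35 μg/tube, with 10 μM GDP present.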

T1 sequence (Q9Y5N1 with tags, fused parts or gaps E19D): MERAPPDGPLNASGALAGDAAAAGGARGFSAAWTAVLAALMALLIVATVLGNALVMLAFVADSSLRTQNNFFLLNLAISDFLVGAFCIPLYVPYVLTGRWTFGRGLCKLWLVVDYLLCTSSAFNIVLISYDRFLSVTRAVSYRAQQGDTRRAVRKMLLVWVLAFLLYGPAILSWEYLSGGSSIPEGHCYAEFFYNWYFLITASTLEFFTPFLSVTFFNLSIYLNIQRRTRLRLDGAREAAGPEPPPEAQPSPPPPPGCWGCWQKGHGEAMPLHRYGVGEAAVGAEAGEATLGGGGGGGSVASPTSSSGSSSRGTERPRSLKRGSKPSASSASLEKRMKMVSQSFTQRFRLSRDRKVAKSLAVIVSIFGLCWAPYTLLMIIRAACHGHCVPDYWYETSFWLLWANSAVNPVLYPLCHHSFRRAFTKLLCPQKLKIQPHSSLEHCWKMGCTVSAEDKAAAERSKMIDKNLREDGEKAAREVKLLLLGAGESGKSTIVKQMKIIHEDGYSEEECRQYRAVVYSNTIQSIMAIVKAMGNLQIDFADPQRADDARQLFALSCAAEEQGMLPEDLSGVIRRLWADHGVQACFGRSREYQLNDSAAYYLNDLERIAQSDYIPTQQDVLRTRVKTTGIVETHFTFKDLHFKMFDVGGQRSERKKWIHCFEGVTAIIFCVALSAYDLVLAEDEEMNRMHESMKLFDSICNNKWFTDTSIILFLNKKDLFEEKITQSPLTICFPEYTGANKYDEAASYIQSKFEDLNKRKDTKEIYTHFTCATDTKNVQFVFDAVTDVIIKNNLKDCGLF

Ki, < 1000 nM:
COc1cccc(OC)c1-c1ccc(N2CCN(CC(=O)N3CCN(C4CCC4)CC3)CC2)nn1 [Compound 1057, 3-{4-[2-(4-cyclobutylpiperazin-1-yl)-2-oxoethyl]piperazin-1-yl}-6-(2,6-dimethoxyphenyl) pyridazine]
CC(C)c1ccccc1-c1ccc(N2CCN(CC(=O)N3CCN(C4CCC4)CC3)CC2)nn1 [Compound 1058, 3-{4-[2-(4-cyclobutylpiperazin-1-yl)-2-oxoethyl]piperazin-1-yl}-6-(2-isopropylphenyl) pyridazine]
Cc1cccc(C)c1-c1ccc(N2CCN(CC(=O)N3CCN(C4CCC4)CC3)CC2)nn1 [Compound 1059, 3-{4-[2-(4-cyclobutylpiperazin-1-yl)-2-oxoethyl]piperazin-1-yl}-6-(2,6-dimethylphenyl) pyridazine]
O=C(CN1CCN(c2ccc(-c3cc(Cl)ccc3Cl)nn2)CC1)N1CCN(C2CCC2)CC1 [Compound 1060, 3-{4-[2-(4-cyclobutylpiperazin-1-yl)-2-oxoethyl]piperazin-1-yl}-6-(2,5-dichlorophenyl)pyridazine]
Cc1cc(C)c(-c2ccc(N3CCN(CC(=O)N4CCN(C5CCC5)CC4)CC3)nn2)c(C)c1 [Compound 1061, 3-{4-[2-(4-cyclobutylpiperazin-1-yl)-2-oxoethyl]piperazin-1-yl}-6-mesitylpyridazine]
O=C(CN1CCN(c2ccc(-c3ccc(C(F)(F)F)cc3)nn2)CC1)N1CCN(C2CCC2)CC1 [Compound 1062, 3-{4-[2-(4-cyclobutylpiperazin-1-yl)-2-oxoethyl]piperazin-1-yl}-6-[4-(trifluoromethyl)phenyl] pyridazine]
O=C(CN1CCN(c2ccc(-c3cccc(C(F)(F)F)c3)nn2)CC1)N1CCN(C2CCC2)CC1 [Compound 1063, 3-{4-[2-(4-cyclobutylpiperazin-1-yl)-2-oxoethyl]piperazin-1-yl}-6-[3-(trifluoromethyl)phenyl] pyridazine]
CC1CCCN1C(=O)c1ccc(N2CCN(CC(=O)N3CCN(C4CCC4)CC3)CC2)nn1 (stereo not shown) [Compound 1064, 3-{4-[2-(4-cyclobutylpiperazin-1-yl)-2-oxoethyl]piperazin-1-yl}-6-[(2-methylpyrrolidin-1-yl)carbonyl]pyridazine]
N#Cc1ccc(-c2cccc(N3CCN(CC(=O)N4CCN(C5CCC5)CC4)CC3)c2)cc1 [Compound 1065, 3′-{4-[2-(4-cyclobutylpiperazin-1-yl)-2-oxoethyl]piperazin-1-yl}biphenyl-4-carbonitrile]
CCN(C(=O)c1cccc(N2CCN(CC(=O)N3CCN(C4CCC4)CC3)CC2)c1)C(C)C [Compound 1066, 3-{4-[2-(4-cyclobutylpiperazin-1-yl)-2-oxoethyl]piperazin-1-yl}-N-ethyl-N-isopropylbenzamide]
CC(C)N(C)C(=O)c1cccc(N2CCN(CC(=O)N3CCN(C4CCC4)CC3)CC2)c1 [Compound 1067, 3-{4-[2-(4-cyclobutylpiperazin-1-yl)-2-oxoethyl]piperazin-1-yl}-N-isopropyl-N-methylbenzamide]
CN(C(=O)c1cccc(N2CCN(CC(=O)N3CCN(C4CCC4)CC3)CC2)c1)C1CCCCC1 [Compound 1068, 3-{4-[2-(4-cyclobutylpiperazin-1-yl)-2-oxoethyl]piperazin-1-yl}-N-cyclohexyl-N-methylbenzamide]
CCN(C(=O)c1cccc(N2CCN(CC(=O)N3CCN(C4CCC4)CC3)CC2)c1)C1CCCCC1 [Compound 1069, 3-{4-[2-(4-cyclobutylpiperazin-1-yl)-2-oxoethyl]piperazin-1-yl}-N-cyclohexyl-N-ethylbenzamide]
COCCN(C(=O)c1cccc(N2CCN(CC(=O)N3CCN(C4CCC4)CC3)CC2)c1)C(C)C [Compound 1070, 3-{4-[2-(4-cyclobutylpiperazin-1-yl)-2-oxoethyl]piperazin-1-yl}-N-isopropyl-N-(2-methoxyethyl)benzamide]
CCC(C)CNC(=O)c1cccc(N2CCN(CC(=O)N3CCN(C4CCC4)CC3)CC2)c1 (stereo not shown) [Compound 1071, 3-{4-[2-(4-cyclobutylpiperazin-1-yl)-2-oxoethyl]piperazin-1-yl}-N-(2-methylbutyl)benzamide]
CCCNC(=O)c1cccc(N2CCN(CC(=O)N3CCN(C4CCC4)CC3)CC2)c1 [Compound 1072, 3-{4-[2-(4-cyclobutylpiperazin-1-yl)-2-oxoethyl]piperazin-1-yl}-N-propylbenzamide]
O=C(NCC1CC1)c1cccc(N2CCN(CC(=O)N3CCN(C4CCC4)CC3)CC2)c1 [Compound 1073, 3-{4-[2-(4-cyclobutylpiperazin-1-yl)-2-oxoethyl]piperazin-1-yl}-N-(cyclopropylmethyl) benzamide]
CC(C)CNC(=O)c1cccc(N2CCN(CC(=O)N3CCN(C4CCC4)CC3)CC2)c1 [Compound 1074, 3-{4-[2-(4-cyclobutylpiperazin-1-yl)-2-oxoethyl]piperazin-1-yl}-N-isobutylbenzamide]
CCCCCNC(=O)c1cccc(N2CCN(CC(=O)N3CCN(C4CCC4)CC3)CC2)c1 [Compound 1075, 3-{4-[2-(4-cyclobutylpiperazin-1-yl)-2-oxoethyl]piperazin-1-yl}-N-pentylbenzamide]
CC(C)CCNC(=O)c1cccc(N2CCN(CC(=O)N3CCN(C4CCC4)CC3)CC2)c1 [Compound 1076, 3-{4-[2-(4-cyclobutylpiperazin-1-yl)-2-oxoethyl]piperazin-1-yl}-N-(3-methylbutyl)benzamide]
O=C(NCC(F)(F)F)c1cccc(N2CCN(CC(=O)N3CCN(C4CCC4)CC3)CC2)c1 [Compound 1077, 3-{4-[2-(4-cyclobutylpiperazin-1-yl)-2-oxoethyl]piperazin-1-yl}-N-(2,2,2-trifluoroethyl)benzamide]
O=C(NC1CC1)c1cccc(N2CCN(CC(=O)N3CCN(C4CCC4)CC3)CC2)c1 [Compound 1078, 3-{4-[2-(4-cyclobutylpiperazin-1-yl)-2-oxoethyl]piperazin-1-yl}-N-cyclopropylbenzamide]
O=C(NC1CCCCC1)c1cccc(N2CCN(CC(=O)N3CCN(C4CCC4)CC3)CC2)c1 [Compound 1079, 3-{4-[2-(4-cyclobutylpiperazin-1-yl)-2-oxoethyl]piperazin-1-yl}-N-cyclohexylbenzamide]
CC(C)NC(=O)c1cccc(N2CCN(CC(=O)N3CCN(C4CCC4)CC3)CC2)c1 [Compound 1080, 3-{4-[2-(4-cyclobutylpiperazin-1-yl)-2-oxoethyl]piperazin-1-yl}-N-isopropylbenzamide]
O=C(NC1CCCC1)c1cccc(N2CCN(CC(=O)N3CCN(C4CCC4)CC3)CC2)c1 [Compound 1081, 3-{4-[2-(4-cyclobutylpiperazin-1-yl)-2-oxoethyl]piperazin-1-yl}-N-cyclopentylbenzamide]
CCCC(C)NC(=O)c1cccc(N2CCN(CC(=O)N3CCN(C4CCC4)CC3)CC2)c1 (stereo not shown) [Compound 1082, 3-{4-[2-(4-cyclobutylpiperazin-1-yl)-2-oxoethyl]piperazin-1-yl}-N-(1-methylbutyl)benzamide]
O=C(NC1CCCCCC1)c1cccc(N2CCN(CC(=O)N3CCN(C4CCC4)CC3)CC2)c1 [Compound 1083, 3-{4-[2-(4-cyclobutylpiperazin-1-yl)-2-oxoethyl]piperazin-1-yl}-N-cycloheptylbenzamide]
O=C(NCC1CCCCC1)c1cccc(N2CCN(CC(=O)N3CCN(C4CCC4)CC3)CC2)c1 [Compound 1084, 3-{4-[2-(4-cyclobutylpiperazin-1-yl)-2-oxoethyl]piperazin-1-yl}-N-(cyclohexylmethyl) benzamide]
CC(C)(C)CNC(=O)c1cccc(N2CCN(CC(=O)N3CCN(C4CCC4)CC3)CC2)c1 [Compound 1085, 3-{4-[2-(4-cyclobutylpiperazin-1-yl)-2-oxoethyl]piperazin-1-yl}-N-(2,2-dimethylpropyl) benzamide]
CCC(CC)CNC(=O)c1cccc(N2CCN(CC(=O)N3CCN(C4CCC4)CC3)CC2)c1 [Compound 1086, 3-{4-[2-(4-cyclobutylpiperazin-1-yl)-2-oxoethyl]piperazin-1-yl}-N-(2-ethylbutyl)benzamide]
O=C(CN1CCN(c2ccc(Cl)nn2)CC1)N1CCN(C2CCC2)CC1 [Compound 1087, 3-chloro-6-{4-[2-(4-cyclobutylpiperazin-1-yl)-2-oxoethyl]piperazin-1-yl}pyridazine]
O=C(CN1CCN(c2cccc(C(=O)N3CCSCC3)c2)CC1)N1CCN(C2CCC2)CC1 [Compound 1091, 4-(3-{4-[2-(4-cyclobutylpiperazin-1-yl)-2-oxoethyl]piperazin-1-yl}benzoyl) thiomorpholine]
CC1CN(C(=O)c2cccc(N3CCN(CC(=O)N4CCN(C5CCC5)CC4)CC3)c2)CC(C)O1 (stereo not shown) [Compound 1092, 4-(3-{4-[2-(4-cyclobutylpiperazin-1-yl)-2-oxoethyl]piperazin-1-yl}benzoyl)-2,6-dimethylmorpholine]
O=C(CN1CCN(c2ccc(C(=O)N3CCOCC3)cc2)CC1)N1CCN(C2CCC2)CC1 [Compound 1093, 4-(4-{4-[2-(4-cyclobutylpiperazin-1-yl)-2-oxoethyl]piperazin-1-yl}benzoyl)morpholine]
